Assay type in all cases: organism-based
Data set [1] has as its system Phaseolus vulgaris. Briefly: Phytotoxicity against Phaseolus vulgaris (White dry bean) assessed as visual crop injury relative to control. The following applies: in vivo.
Data set [2] has as its system Phaseolus vulgaris. Briefly: Phytotoxicity against Phaseolus vulgaris (Kidney) dry bean assessed as visual crop injury relative to control. The following applies: in vivo.
Data set [3] relates to Phaseolus vulgaris. Description: Phytotoxicity against Phaseolus vulgaris (Black dry bean) assessed as reduction in plant height applied pre-emergence relative to control. On the set-up: scale not given: the % may be the effect or the level left. The following applies: in vivo.
The test system of data set [4] is Phaseolus vulgaris. Briefly: Phytotoxicity against Phaseolus vulgaris (White dry bean) assessed as reduction in plant height applied pre-emergence relative to control. On the set-up: scale not given: the % may be the effect or the level left. The following applies: in vivo.
The test system of data set [5] is Phaseolus vulgaris. Description: Phytotoxicity against Phaseolus vulgaris (Cranberry dry bean) assessed as visual crop injury applied pre-emergence relative to control. The following applies: in vivo.
Data set [6] concerns Phaseolus vulgaris. Briefly: Phytotoxicity against Phaseolus vulgaris (White dry bean) assessed as visual crop injury applied pre-emergence relative to control. The following applies: in vivo.
Data set [7] deals with Phaseolus vulgaris. Description: Phytotoxicity against Phaseolus vulgaris (Pink dry bean) assessed as visual crop injury applied post-emergence relative to control. The following applies: in vivo.
The test system of data set [8] is Phaseolus vulgaris. Briefly: Phytotoxicity against Phaseolus vulgaris (Kidney dry bean) assessed as visual crop injury applied […] relative to control. The following applies: in vivo.
Data set [9] concerns Phaseolus vulgaris. Briefly: Phytotoxicity against Phaseolus vulgaris (White dry bean) assessed as visual crop injury applied post-emergence relative to control. The following applies: in vivo, other.
Data set [10] concerns Phaseolus vulgaris. Description: Phytotoxicity against Phaseolus vulgaris (Pinto dry bean) assessed as reduction in shoot dry weight applied pre-emergence relative to control. More on the design: scale not given: the % may be the effect or the level left. The following applies: in vivo.
For data set [11], the system named is Phaseolus vulgaris. Description: Phytotoxicity against Phaseolus vulgaris (Otebo dry bean) assessed as reduction in shoot dry weight applied pre-emergence relative to control. More on the design: scale not given: the % may be the effect or the level left. The following applies: in vivo.
The test system of data set [12] is Phaseolus vulgaris. Description: Phytotoxicity against Phaseolus vulgaris (Yellow eye dry bean) assessed as reduction in shoot dry weight applied pre-emergence relative to control. More on the design: scale not given: the % may be the effect or the level left. The following applies: in vivo.
The test system of data set [13] is Phaseolus vulgaris. Description: Phytotoxicity against Phaseolus vulgaris (Pinto dry bean) assessed as reduction in plant height applied pre-emergence relative to control. On the set-up: scale not given: the % may be the effect or the level left. The following applies: in vivo.
Data set [14] has as its system Phaseolus vulgaris. Description: Phytotoxicity against Phaseolus vulgaris (Otebo dry bean) assessed as reduction in plant height applied pre-emergence relative to control. The following applies: in vivo. On the set-up: scale not given: the % may be the effect or the level left.
In data set [15] the test system is Phaseolus vulgaris. Description: Phytotoxicity against Phaseolus vulgaris (White dry bean) assessed as reduction in shoot dry weight applied pre-emergence relative to control. More on the design: scale not given: the % may be the effect or the level left. The following applies: in vivo.
Data set [16] concerns Phaseolus vulgaris. Description: Phytotoxicity against Phaseolus vulgaris (Yellow eye dry bean) assessed as reduction in plant height applied pre-emergence relative to control. More on the design: scale not given: the % may be the effect or the level left. The following applies: in vivo.
Data set [17] deals with Phaseolus vulgaris. Description: Phytotoxicity against Phaseolus vulgaris (Black dry bean) assessed as reduction in shoot dry weight applied pre-emergence relative to control. More on the design: scale not given: the % may be the effect or the level left. The following applies: in vivo.

As to `CCc1cccc(CC)c1N(COC)C(=O)CCl` [ALACHLOR], the Activity in the data set with Phaseolus vulgaris [1] is given as 5.6%; with Phaseolus vulgaris [2], 0.5%.

Regarding `C#CCN1C(=O)COc2cc(F)c(N3C(=O)C4=C(CCCC4)C3=O)cc21` [FLUMIOXAZIN], the Activity with Phaseolus vulgaris [3] amounted to 23%; in the data set with Phaseolus vulgaris [4], 28%; in the data set with Phaseolus vulgaris [5], 4%; with Phaseolus vulgaris [6], 17%.

For `CS(=O)(=O)NC(=O)c1cc(Oc2ccc(C(F)(F)F)cc2Cl)ccc1[N+](=O)[O-]` [FOMESAFEN], the Activity with Phaseolus vulgaris [7] came to 5%; in the data set with Phaseolus vulgaris [8], 1.4%.

Consider `CCc1cnc(C2=NC(C)(C(C)C)C(=O)N2)c(C(=O)O)c1` (stereo not given) [IMAZETHAPYR], for which the Activity with Phaseolus vulgaris [3] was determined as 40%; in the data set with Phaseolus vulgaris [4], 40%; in the data set with Phaseolus vulgaris [8], 1.8%; in the data set with Phaseolus vulgaris [9] it was 11%.

Regarding `CON(C)C(=O)Nc1ccc(Cl)c(Cl)c1` [LINURON], the Activity came to 26% with Phaseolus vulgaris [10]; 24% in the data set on Phaseolus vulgaris [3]; 26% with Phaseolus vulgaris [11]; 24% in the data set on Phaseolus vulgaris [4]; 4% with Phaseolus vulgaris [5]; 26% in the data set on Phaseolus vulgaris [12]. Also, the Activity in the data set on Phaseolus vulgaris [13] is listed as 24%; with Phaseolus vulgaris [14] it was 24%; in the data set with Phaseolus vulgaris [6] it was 49%; with Phaseolus vulgaris [15], 26%; in the data set with Phaseolus vulgaris [16] it was 24%; with Phaseolus vulgaris [17], 26%.

As to `CCc1cccc(C)c1N(C(=O)CCl)[C@@H](C)COC` [S-METOLACHLOR], the Activity in the data set with Phaseolus vulgaris [17] is 16%.

The values are drawn from ChEMBL document CHEMBL3045522, “Responses of dry beans (Phaseolus vulgaris L.) to sulfentrazone” (Crop Prot, 2007).
